Here are results for three compounds from paper PMC10612255, “Discovery of novel 2,3,4,5-tetrahydrospiro[benzo[c]azepine-1,1’-cyclohexan]-5-ol derivatives as PARP-1 inhibitors” (BMC Chemistry, 2023).

“And” between values parts separate entries of the source, which are not always exact repeats. Identical values can stand only once.

One data set has as its target T1, PARP-1 (Homo sapiens, UniProt P09874).
T1 construct: purchased BPS Bioscience, USA 80,580
In words: PARP-1 enzyme inhibition, colorimetric 96-well PARP assay kit. It is filed as biochemical. The note with it: in vitro enzyme, Mean ± SD.

The next data set relates to A549 cells. In words: Annexin-V/PI apoptosis assay by flow cytometry. It is filed as cell-based, human. The note with it: 48 h, P < 0.001. As for the experimental part:
PARP-1 inhibitors have been reported to induce further apoptosis of cancer cells, which was also confirmed by our previous studies. An annexin-V/PI binding assay was conducted in A549 cells to evaluate the capacity of compound 11b to induce apoptosis in cancer cells. […] (Fig. 4).
A549 cells were cultured in 6-well plates (3.0 × 10^5/well), and treated with DMSO (1%) or compound 11b for 48 h. The cells were then collected, washed with PBS, and stained with FITC-Annexin-V and PI (Promega Corporation, USA). Finally, the apoptosis of A549 cells was detected by flow cytometry (Becton Dickinson and Company, USA; FACS Calibur).
(A flow cytometer gives signals particle by particle.)

The test system of a further data set is HTB-125. Nature of the data set: Selectivity index (SI) versus HTB-125 normal cells. It is filed as cell-based. The note with it: SI = CC50/IC50; Human normal breast cell; means ± SD.
For a further data set, the system named is PAR. In words: Western blot of PAR in A549 cells. It is filed as cell-based, human. The note with it: best effect at 4.0 µM, P < 0.001. How it is done:
PARylation is a critical post-translational modification in which ADP-ribose units are added to a wide array of target proteins by PARP-1 [33–35]. PAR is the active product of PARP-1, and the biosynthesis of PAR will be reduced while PARP-1 is inhibited. Here, we used the western blot to evaluate PAR levels and PARP-1 expression.
(§1) The cells were plated in 6-well plates and incubated with different concentrations of compound 11b for a specified time. The cells were then collected, and tested using a standard western blot as described before.
For orientation: In western blotting, separated proteins are transferred to a membrane and probed.

Data set [1] relates to Cleaved-Caspase 3 and Caspase 3. In words: Western blot of Caspase 3 and Cleaved-Caspase 3 in A549 cells. It is filed as cell-based, human. How it is done:
Meanwhile, we also detected the expression of Cleaved-Caspase 3 and Caspase 3 after different treatment concentrations to explore the mechanism of compound 11b inducing cell apoptosis.
as §1

For a further data set, the system named is HPAEpiC. In words: Selectivity index (SI) versus HPAEpiC normal cells. The format is cell-based. The note with it: SI = CC50/IC50; Human normal alveolar epithelial cells; means ± SD.
The test system of the next data set is OVCAR-3. In words: MTT assay, anti-proliferative effect on OVCAR-3 cells. It is filed as cell-based, human. The note with it: Homo sapiens, OVCAR-3, 72 h, read-out: IC50 OVCAR-3. How it is done:
(§2) A549, OVCAR-3, HCT-116, and MCF-7 were purchased from American type culture collection (ATCC, USA). […] And all cell lines used in the experiment were tested for mycoplasma contamination every two weeks.
(§3) A549, OVCAR-3, HCT-116, and MCF-7 cells were seeded in 96-well plates, and then treated with target compounds for 72 h. Then, 20 µL MTT (5 mg/mL, in PBS) was added into each well, and dissolved in 150 µL DMSO after incubation for 4 h. Finally, the absorbance was measured with microplate reader (490 nm).

In the next data set the test system is A549. Nature of the data set: MTT assay, anti-proliferative effect on A549 cells. It is filed as cell-based, human. The note with it: Homo sapiens, A549, 72 h, read-out: IC50 A549. As for the experimental part: as §2, §3
(In general: Tetrazolium dyes change colour on reduction, which living cells bring about.)

A further data set deals with HIEC. Nature of the data set: Selectivity index (SI) versus HIEC normal cells. The note with it: SI = CC50/IC50; Human normal intestinal epithelial cells; means ± SD. The format is cell-based.
A further data set concerns IOSE80. Nature of the data set: Selectivity index (SI) versus IOSE80 normal cells. The format is cell-based. The note with it: SI = CC50/IC50; Human normal ovarian epithelial cells; means ± SD.
The target in a further data set is T2, PARP-2 (Homo sapiens, UniProt Q9UGN5).
T2 construct: purchased BPS Bioscience, USA 80,581
T2 sequence (Q9UGN5 whole entry): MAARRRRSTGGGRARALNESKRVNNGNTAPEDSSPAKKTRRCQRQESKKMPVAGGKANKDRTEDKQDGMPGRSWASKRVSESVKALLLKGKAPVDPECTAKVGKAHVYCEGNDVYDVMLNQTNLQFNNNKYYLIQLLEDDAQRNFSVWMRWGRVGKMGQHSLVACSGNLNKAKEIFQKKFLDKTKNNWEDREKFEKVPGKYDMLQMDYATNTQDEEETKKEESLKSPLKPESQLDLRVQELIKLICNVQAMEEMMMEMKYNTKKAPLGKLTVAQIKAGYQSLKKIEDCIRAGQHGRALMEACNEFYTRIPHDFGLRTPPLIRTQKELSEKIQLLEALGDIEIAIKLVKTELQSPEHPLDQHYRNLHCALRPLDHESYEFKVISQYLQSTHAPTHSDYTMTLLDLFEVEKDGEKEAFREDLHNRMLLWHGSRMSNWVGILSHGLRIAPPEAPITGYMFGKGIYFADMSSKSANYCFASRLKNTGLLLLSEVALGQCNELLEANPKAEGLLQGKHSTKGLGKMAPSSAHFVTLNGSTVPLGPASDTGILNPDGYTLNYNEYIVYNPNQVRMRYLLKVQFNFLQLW
Nature of the data set: PARP-2 enzyme inhibition, colorimetric 96-well PARP assay kit. The note with it: in vitro enzyme, Mean ± SD. It is filed as biochemical.

The test system of another data set is HCT-116. Nature of the data set: MTT assay, anti-proliferative effect on HCT-116 cells. It is filed as cell-based, human. The note with it: Homo sapiens, HCT-116, 72 h, read-out: IC50 HCT-116. How it is done: as §2, §3
A further data set relates to MCF-7. In words: MTT assay, anti-proliferative effect on MCF-7 cells. The format is cell-based, human. The note with it: Homo sapiens, MCF7, 72 h, read-out: IC50 MCF-7. How it is done:
as §2, §3

As usually defined, the IC50 is the point on the concentration scale where inhibition reaches its midpoint. Broadly, the melting point is the temperature, or range, at which the solid turns liquid.

T1 sequence (P09874 whole entry): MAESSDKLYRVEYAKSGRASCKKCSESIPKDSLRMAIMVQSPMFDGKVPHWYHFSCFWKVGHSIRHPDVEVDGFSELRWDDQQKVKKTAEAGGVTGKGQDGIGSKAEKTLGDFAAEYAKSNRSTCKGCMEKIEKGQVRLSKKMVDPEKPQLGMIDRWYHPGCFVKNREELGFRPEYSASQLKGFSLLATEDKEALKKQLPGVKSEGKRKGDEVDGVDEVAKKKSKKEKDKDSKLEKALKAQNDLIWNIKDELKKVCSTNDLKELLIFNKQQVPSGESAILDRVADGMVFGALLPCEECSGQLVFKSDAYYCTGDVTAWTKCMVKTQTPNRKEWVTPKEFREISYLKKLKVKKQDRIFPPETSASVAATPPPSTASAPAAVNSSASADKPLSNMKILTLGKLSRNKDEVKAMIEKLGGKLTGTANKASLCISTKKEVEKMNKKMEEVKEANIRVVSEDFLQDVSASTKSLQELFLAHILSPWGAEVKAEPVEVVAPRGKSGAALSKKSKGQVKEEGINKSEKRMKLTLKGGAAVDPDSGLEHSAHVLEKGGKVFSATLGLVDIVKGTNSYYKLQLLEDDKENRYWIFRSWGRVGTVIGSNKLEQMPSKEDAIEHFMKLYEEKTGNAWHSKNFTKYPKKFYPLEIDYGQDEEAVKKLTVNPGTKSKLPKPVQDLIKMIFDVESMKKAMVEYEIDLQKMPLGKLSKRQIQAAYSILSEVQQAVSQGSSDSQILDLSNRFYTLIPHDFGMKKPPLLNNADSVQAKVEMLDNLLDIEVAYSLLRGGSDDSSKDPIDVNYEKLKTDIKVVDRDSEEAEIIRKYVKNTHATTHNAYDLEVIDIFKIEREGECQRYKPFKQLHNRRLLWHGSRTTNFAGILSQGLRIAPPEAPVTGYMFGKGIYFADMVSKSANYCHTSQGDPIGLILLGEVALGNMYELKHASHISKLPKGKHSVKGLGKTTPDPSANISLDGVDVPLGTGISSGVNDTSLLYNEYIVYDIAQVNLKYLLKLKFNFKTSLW
Protocol for PARP-1: (§4) The PARP-1 and PARP-2 inhibition assays were performed by the colorimetric 96-well PARP assay kits provided by BPS Bioscience, USA.
Protocol for PARP-2: as §4

Regarding `OC1CCN(Cc2cn(-c3ccccc3F)nn2)C2(CCCCC2)c2ccccc21` (stereo not drawn) [Compound 11b, 2-((1-(2-fluorophenyl)-1 H-1,2,3-triazol-4-yl)methyl)-2,3,4,5-tetrahydrospiro[benzo[c]azepine-1,1’-cyclohexan]-5-ol], the IC50 is 0.0192 ± 0.00163 µM at PARP-1; 4.02 ± 0.24 µM in the data set on OVCAR-3; 1.95 ± 0.33 µM with A549; 0.0326 ± 0.00197 µM against PARP-2; 7.45 ± 1.98 µM in the data set with HCT-116; 9.21 ± 2.54 µM with MCF-7. Also, the “induction of apoptosis in A549 cells” value in the data set on A549 cells is recorded as “induce apoptosis in a dose-dependent manner”. The “SI HTB-125” value with HTB-125 amounted to 7.06 ± 1.32. In the data set with PAR, the “biosynthesis of PAR” value is “reduce the biosynthesis of PAR”. Moreover, in data set [1], the “expression of Caspase 3” value is on record as “decreased with the increase of compound 11b concentration”. Moreover, the “ratio of Cleaved-Caspase 3/Caspase 3” value in data set [1] is “best at 4.0 µM”. For the same compound, the “SI HPAEpiC” value with HPAEpiC is 15.38 and 15.38 ± 0.97. Further, the “SI HIEC” value with HIEC was 6.12 ± 1.76. The “SI IOSE80” value in the data set on IOSE80 came to 10.57 ± 2.01.
On to `Cc1ccccc1-n1cc(CN2CCC(O)c3ccccc3C23CCCCC3)nn1` (stereo not drawn) [Compound 11e, 2-((1-(o-tolyl)-1 H-1,2,3-triazol-4-yl)methyl)-2,3,4,5-tetrahydrospiro[benzo[c]azepine-1,1’-cyclohexan]-5-ol], for which the melting point fell in the range of 165.2 to 166 °C. Moreover, the IC50 with OVCAR-3 was 7.95 ± 3.35 µM. Besides, in the data set on A549, the IC50 was 15.6 ± 2.8 µM. In addition, in the data set on HCT-116, the IC50 came out at 9.22 ± 4.57 µM. For the same compound, the IC50 in the data set with MCF-7 is 9.33 ± 4.08 µM.
Turning to `COc1cccc(-n2cc(CN3CCC(O)c4ccccc4C34CCCCC4)nn2)c1` (stereo not drawn) [Compound 11 L, 2-((1-(3-methoxyphenyl)-1 H-1,2,3-triazol-4-yl)methyl)-2,3,4,5-tetrahydrospiro[benzo[c]azepine-1,1’-cyclohexan]-5-ol], the melting point lay within 172.3 to 174.1 °C. For the same compound, the IC50 in the data set on OVCAR-3 was 6.14 ± 0.56 µM. Also, the IC50 with A549 was determined as 11.1 ± 2.98 µM. The IC50 with HCT-116 worked out at 11.7 ± 4.88 µM. Moreover, the IC50 in the data set with MCF-7 worked out at 8.54 ± 1.65 µM.
